Experimental data from US20180188195A1, “SYSTEMS AND METHODS FOR MULTIPLEXED HEMOSTASIS TEST PANELS” (T2 Biosystems, Inc., priority 2015, published 2018).

How the values were obtained:
citrated plasma = experiment: T2MR PT clotting time in samples from donors on Coumadin therapy; format: in vivo, human
Procedure: All samples were sourced from the coagulation laboratory at a local hospital. Lab protocol was to collect discarded citrated blood samples (venous draw, 1 mL minimum) from patients on Coumadin therapy with both normal and abnormal PT values. Citrated blood samples were stored at RT and within 4-5 hours of the draw time samples were spun down at 1500×g for 15 min to prepare plasma. Plasma samples were stored frozen at −70° C.
For citrated plasma, a tissue factor reagent was prepared by reconstituting the lyophilized Dade® Innovin® (tissue factor) reagent. Citrated plasma (13 μL) was mixed with 27 μL of tissue factor reagent. All reagents and disposables were adequately pre-heated. T2 values were collected with a 1 second dwell time and used to collect the T2 values as a function of time. The T2 vs. time data were collected for 120 successive measurements and fit with a five-parameter logistic fit to calculate the EC50, from which the clotting time was derived. A method comparison against the Stago ST4 system and a precision study was completed with 22 samples from normal donors not on anti-coagulant medications and 50 samples from donors on Coumadin. […] INR (international normalized ratio, a normalized PT value) values were calculated from a pool of normal healthy donors. […] This corresponds to a clotting time value that is prolonged compared to standard therapeutic ranges.

platelet aggregation = experiment: Platelet aggregation by whole blood aggregometry (WBA) or light transmission aggregometry (LTA); format: cell-based, human; conditions: titration of CCD
plasma [1] = experiment: STAGO plasma prothrombin time (PT); format: biochemical, human; conditions: rivaroxaban spiked samples, three donors
Procedure: Samples from three donors were provided. Rivaroxaban spiked citrated whole blood samples were used to generate a range of clotting time measurements. An extrinsic pathway activator, such as tissue factor, was added. The T2MR clotting time (CT) range used was 32-259 seconds, and the STAGO plasma prothrombin time (PT) range was 11-47 seconds. Five replicate T2MR measurements were taken for each clotting time.

citrated whole blood [2] = experiment: T2Ex T2MR clotting time, extrinsic pathway activator (tissue factor); format: cell-based, human
Text: In one embodiment a panel is used with an extrinsic activator such as tissue factor. The clotting time T2MR measurement for normal blood can be 30-40 seconds. It can also be 8-12 seconds, 10-20 seconds, 10-40 seconds, 30-40 seconds, 30-50 seconds, 40-60 seconds, 50-60 seconds or 20-60 seconds. The international normalized ratio for normal blood can then be 0.8-1.2, or 0.87-1.13. The abnormal range of T2MR measurement of clotting time is above or below the normal range. The total range easily measured is 8-300 seconds though a measurement up to or beyond 1000 seconds could be performed with modified acquisition. If aprotinin is added in addition to tissue factor, in normal blood the clotting time is often between 27.9 and 41.6 seconds.
The general extrinsic activator protocol was as follows (T2Ex panel): an extrinsic activator solution was prepared by mixing tissue factor reagent with CaCl2. […]
The T2Ex or the T2In protocols were also used with the addition of aprotinin (T2Ex-A and T2In-A) respectively. […] The sample was mixed and read in the T2reader. […]
Rivaroxaban was spiked into citrated blood from normal donors at increasing levels. Aliquots of spiked blood were activated with tissue factor activator solution and clot times determined by T2MR. […]

citrated whole blood [3] = experiment: T2In T2MR clotting time, intrinsic pathway activator (ellagic acid); format: cell-based, human
Text: In another embodiment a coagulopathy panel is used with an intrinsic activator such as ellagic acid. The common range of clotting time is often between 100 and 120 seconds for normal blood. However, it can be 22-30 seconds, 30-44 seconds, 44-60 seconds, 60-80 seconds, 80-100 seconds, up to 2 times to 4 times the range of normal T2MR clotting times for the extrinsic activator. The abnormal clotting time ranges are above or below the normal range. The total range easily measured is 8-300 seconds though a measurement up to or beyond 1000 seconds could be performed with modified acquisition. If aprotinin is added in addition to intrinsic activator, clotting times can often be from 110.9-151.0 seconds in normal blood.
The general intrinsic activator protocol is as follows (T2In panel): an intrinsic activator solution was prepared by mixing tissue factor reagent with CaCl2. To 36.7 μL of citrated whole blood (warmed to approximately 37° C. for 3 minutes and mixed) was added 5 μL of the intrinsic activator solution (also been warmed to approximately 37° C. for one minute). The resulting solution was mixed and subjected to T2 measurements for 50 minutes. For a given sample, a clotting time measurement was typically obtained within 5 minutes. Some examples of activators are tissue factor with phospholipids and ellagic acid with phospholipid. The reagents were placed in a tube that was subsequently placed in the magnetic field. Citrated whole blood was added and mixed. The blood was diluted 50%. The T2MR of the sample was measured for 30 minutes.
The T2Ex or the T2In protocols were also used with the addition of aprotinin (T2Ex-A and T2In-A) respectively. For the intrinsic pathway measurement (T2In), intrinsic activator solution was prepared by mixing ellagic acid stock and CaCl2. For the intrinsic pathway measurement that includes aprotinin (T2In-A), add 41.7 μL of a 1 mg/mL stock of aprotinin to 1 mL intrinsic activator solution. 36.7 μL citrated whole blood that had been warmed to approximately 37° C. for three minutes was added and mixed. […] The sample was mixed and read in the T2reader. […]

plasma [4] = experiment: STAGO aPTT; format: biochemical, human; conditions: rivaroxaban spiked samples, six donors
Procedure: Citrated whole blood samples from six donors were provided and spiked with rivaroxaban to generate a range of clotting times. An activator of the intrinsic coagulation pathway, (e.g. ellagic acid), was added. T2MR clotting time range was between 73-202 seconds, and the STAGO aPTT range was between 29-86 seconds. Five replicate T2MR measurements were taken for each clotting time. The specification desired was between 0.7-5% CV with 100-200 seconds of clotting time and a detection range of 60-450 seconds.

[5] = tested on: reconstituted blood samples; experiment: T2MR % deltaT2 fibrinogen measurement, reconstituted blood activated with ellagic acid; format: cell-based, human
Text: The T2MR based hemostasis assays described herein can be used to discriminate normal from abnormal patient samples for fibrinogen measurements using either an extrinsic or intrinsic pathway activation. […] Citrated whole blood from normal donors was centrifuged and […] removed. Packed red blood cells were washed with fibrinogen depleted plasma. Fibrinogen depleted plasma was spiked with known amounts of fibrinogen; these spiked plasmas were used to reconstitute washed red blood cells to produce blood samples with varying fibrinogen levels. Blood samples were activated with ellagic acid activator solution and clot time and % deltaT2 were measured. Fibrinogen levels in each sample were determined by the Clauss method. […] Low fibrinogen (120 mg/dL) gave an average % deltaT2 of 4, normal level fibrinogen (343 mg/dL) gave an average % deltaT2 of 8.3 and high fibrinogen (583 mg/dL) gave an average % deltaT2 of 10.7.

citrated whole blood [6] = experiment: T2In platelet activity and fibrinolysis measurement with tPA or aprotinin; format: cell-based, human; conditions: ellagic acid with CaCl2; tPA 0, 2 or 4 nM or aprotinin control; 65 min
Procedure: The T2Ex or the T2In protocols were also used with the addition of aprotinin (T2Ex-A and T2In-A) respectively. For the intrinsic pathway measurement (T2In), intrinsic activator solution was prepared by mixing ellagic acid stock and CaCl2. For the intrinsic pathway measurement that includes aprotinin (T2In-A), add 41.7 μL of a 1 mg/mL stock of aprotinin to 1 mL intrinsic activator solution. 36.7 μL citrated whole blood that had been warmed to approximately 37° C. for three minutes was added and mixed. 5 μL of intrinsic activator solution with aprotinin that had been warmed to approximately 37° C. for one minute was added. The sample was mixed and read in the T2reader. The clotting time measurement was obtained after 5 minutes and then the platelet activity and fibrinolysis measurements were obtained over the following 60 minutes. In a separate assay the effects of the amounts of activator were tested.
Platelet activity and fibrinolysis measurements for the 3 donor samples in the T2In assay are shown in FIG. 15a-15b. tPA levels of 0 nM, 2 nM or 4 nM were added to citrated whole blood. Blood samples (36.7 μL) were activated by addition of 5 μL ellagic acid solution with CaCl2. T2MR data was collected for 65 min. The addition of tPA cleaves the fibrin mesh of the clot and results in clot dissolution over time. This is detected by T2MR by the change in T2 value of the serum peak (third phase). […]

Compound: CC(=O)CC(c1ccccc1)c1c(O)c2ccccc2oc1=O (centres unmarked) [Coumadin, warfarin]
- clotting times versus normal donors not on therapy (citrated plasma; citrated plasma, citrated blood and fresh whole blood): prolonged clotting times
- INR (citrated plasma; patient on Coumadin, hypocoagulable state): 5.3
- T2MR clotting time (citrated plasma; patient on Coumadin, hypocoagulable state, citrated plasma, tissue factor reagent): 51.3 s
- INR (citrated plasma; patient undergoing Coumadin therapy but hypercoagulable): 0.8
- T2MR clotting time (citrated plasma; patient undergoing Coumadin therapy but hypercoagulable, citrated plasma): 8.4 s

Compound: C=C1[C@@H](C)[C@H]2[C@H](Cc3ccccc3)NC(=O)[C@]23[C@H](OC(C)=O)/C=C/[C@@](C)(O)C(=O)[C@@H](C)C/C=C/[C@H]3[C@@H]1O [CCD, cytochalasin D]
- effect on platelet aggregation (platelet aggregation): no reproducible effect

Compound: O=C(NC[C@H]1CN(c2ccc(N3CCOCC3=O)cc2)C(=O)O1)c1ccc(Cl)s1 [rivaroxaban]
- STAGO plasma prothrombin time (PT) range (plasma [1]): 11 to 47 s
- extension of clot times (citrated whole blood [2]; 800 ng/mL spiked into citrated blood from normal donors, tissue factor activator solution): approximately 80%
- T2MR clotting time (CT) range (citrated whole blood [2]; rivaroxaban spiked citrated whole blood, three donors, range over spiked samples (Example 12)): 32 to 259 s
- T2MR clotting time range (citrated whole blood [3]; rivaroxaban spiked citrated whole blood, six donors): 73 to 202 s
- STAGO aPTT range (plasma [4]): 29 to 86 s

Compound: fibrinogen
- average % deltaT2 ([5]; high fibrinogen 583 mg/dL): 10.7
- average % deltaT2 ([5]; low fibrinogen 120 mg/dL): 4
- average % deltaT2 ([5]; normal level fibrinogen 343 mg/dL): 8.3

Compound: aprotinin
- change in T2 value of the serum peak (third phase) (citrated whole blood [6]): no detected change
- clotting time curves (% deltaT2) (citrated whole blood [3]; T2In, 3 donors, different tPA concentrations, with or without aprotinin): appear to overlay
- clotting times (citrated whole blood [3]; aprotinin added in addition to intrinsic activator, normal blood): 110.9 to 151.0 s
